A word on the inhibition: it is the change of the read-out against control, counted positive when it falls.

The test system of one test is ERK phosphorylation. Kind of test: Analysis of ERK phosphorylation (Alphascreen SureFire Phospho-ERK 1/2). Format: cell-based, human and mouse. The settings on record: read-out: Minimum concentration (nM) required for ≧80% inhibition of pERK. In short, it runs like this: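 Human melanoma and human and mouse colon cancer cells were exposed to compounds for 1 h. Phospho-ERK1/2 was read by AlphaScreen SureFire. Percent inhibition was calculated from RFU relative to vehicle-treated and lysis-buffer controls.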

The test system of test [1] is MEK phosphorylation (S218 and S222). Kind of test: Analysis of B-Raf-mediated MEK phosphorylation (Alphascreen SureFire Phospho-MEK). The settings on record: read-out: % Inhibition of MEK phosphorylation, 1 h. In kind it is cell-based, human. The method, then:
This assay was carried out with human melanoma cells. Cells were treated for 1 h with various concentrations of test compounds. MEK phosphorylation (S218 and S222) analysis was performed using the Alphascreen SureFire Phospho-MEK Kit (Perkin Elmer), by following the manufacturer's instructions. % inhibition of […] phosphorylation was determined as: 100−{(RFU test−RFU lysis buffer control)/(RFU vehicle treated control−RFU lysis buffer control)}×100.

The mark [2] stands for this setting: cells treated for 1 h, human melanoma cells, human and mouse colon cancer cells.
Where [3] appears, read: 1 nM, human melanoma cells, read-out: % Inhibition of MBK phosphorylation.
Where [4] appears, read: 10 nM, human melanoma cells, read-out: % Inhibition of MBK phosphorylation.
The mark [5] stands for this setting: 100 nM, human melanoma cells, read-out: % Inhibition of MBK phosphorylation.

Like-named read-outs stand apart in the source and are kept apart here.

With `Cc1c(=O)n(C)c(Nc2ccc(I)cc2F)c2c(=O)[nH]c(=O)n(-c3cccc(OCC(N)=O)c3)c12` [Compound 16, 2-(3-(5-((2-fluoro-4-iodophenyl)amino)-6,8-dimethyl-2,4,7-trioxo-3,4,6,7-tetrahydropyrido[4,3-d]pyrimidin-1(2H)-yl)phenoxy)acetamide], in the test on ERK phosphorylation (setting [2]), the IC80 lay within 1 to 3 nM. In test [1] (setting [3]), the inhibition at 0.001 µM came out at 89.2%. In test [1] (setting [4]), the inhibition at 0.01 µM was determined as 93.3%. Also, in test [1] (setting [5]), the inhibition at 0.1 µM stood at 94.7%.
The corresponding values for `CNC(=O)COc1cccc(-n2c(=O)[nH]c(=O)c3c(Nc4ccc(I)cc4F)n(C)c(=O)c(C)c32)c1` [Compound 5, 2-(3-(5-((2-fluoro-4-iodophenyl)amino)-6,8-dimethyl-2,4,7-trioxo-3,4,6,7-tetrahydropyrido[4,3-d]pyrimidin-1(2H)-yl)phenoxy)-N-methylacetamide] are 0.1 to 0.9 nM, 93.9%, 97.4% and 97.4%.
The corresponding values for `Cc1c(=O)n(C)c(Nc2ccc(I)cc2F)c2c(=O)n(C3CC3)c(=O)n(-c3cccc(C4(C(N)=O)CC4)c3)c12` [Compound 78, 1-(3-(3-cyclopropyl-5-((2-fluoro-4-iodophenyl)amino)-6,8-dimethyl-2,4,7-trioxo-3,4,6,7-tetrahydropyrido[4,3-d]pyrimidin-1(2H)-yl)phenyl)cyclopropanecarboxamide] are 0.1 to 0.9 nM, 42.6%, 56.7% and 75.4%.
The corresponding values for `Cc1c(=O)n(C)c(Nc2ccc(I)cc2F)c2c(=O)n(C)c(=O)n(-c3cccc(OCC(N)=O)c3)c12` [Compound 57, 2-(3-(5-((2-fluoro-4-iodophenyl)amino)-3,6,8-trimethyl-2,4,7-trioxo-3,4,6,7-tetrahydropyrido[4,3-d]pyrimidin-1(2H)-yl)phenoxy)acetamide] are 1 to 3 nM, 63.3%, 76.4% and 83%.
As to `Cc1c(=O)n(C)c(Nc2ccc(I)cc2F)c2c(=O)n(C3CC3)c(=O)n(-c3cccc(CC(=O)N(C)C)c3)c12` [Compound 29, 2-(3-(3-cyclopropyl-5-((2-fluoro-4-iodophenyl)amino)-6,8-dimethyl-2,4,7-trioxo-3,4,6,7-tetrahydropyrido[4,3-d]pyrimidin-1(2H)-yl)phenyl)-N,N-dimethylacetamide], in the test on ERK phosphorylation (setting [2]), the IC80 was 0.1 to 0.9 nM. The inhibition at 0.001 µM in test [1] (setting [3]) was 52.9%. Further, the inhibition at 0.01 µM in test [1] (setting [4]) is 72.9%. For the same molecule, the inhibition at 0.1 µM in test [1] (setting [5]) came to 76.4%.
The corresponding values for `Cc1c(=O)n(C)c(Nc2ccc(I)cc2F)c2c(=O)[nH]c(=O)n(-c3cccc(C(=O)NC4CC4)c3)c12` [Compound 2, N-cyclopropyl-3-(5-((2-fluoro-4-iodophenyl)amino)-6,8-dimethyl-2,4,7-trioxo-3,4,6,7-tetrahydropyrido[4,3-d]pyrimidin-1(2H)-yl)benzamide] are 0.01 nM, 72.2%, 93.4% and 96.4%.
For `Cc1c(=O)n(C)c(Nc2ccc(I)cc2F)c2c(=O)n(C3CC3)c(=O)n(-c3cccc(C(=O)NC4CC4)c3)c12` [Compound 37, N-cyclopropyl-3-(3-cyclopropyl-5-((2-fluoro-4-iodophenyl)amino)-6,8-dimethyl-2,4,7-trioxo-3,4,6,7-tetrahydropyrido[4,3-d]pyrimidin-1(2H)-yl)benzamide], in that order: 1 to 3 nM, 54.7%, 85.9% and 92.4%.
Turning to `Cc1c(=O)n(C)c(Nc2ccc(I)cc2F)c2c(=O)[nH]c(=O)n(-c3cccc(C4(C(N)=O)CC4)c3)c12` [Compound 77, 1-(3-(5-((2-fluoro-4-iodophenyl)amino)-6,8-dimethyl-2,4,7-trioxo-3,4,6,7-tetra hydropyrido[4,3-d]pyrimidin-1(2H)-yl)phenyl)cyclopropanecarboxamide], the IC80 in the test with ERK phosphorylation (1 h) was in the range of 0.1 to 0.9 nM. Besides, in test [1] (Homo sapiens), the inhibition at 0.001 µM was determined as 49%, the inhibition at 0.01 µM is 67.8% and the inhibition at 0.1 µM came out at 85.5%.
Consider `Cc1c(=O)n(C)c(Nc2ccc(I)cc2F)c2c(=O)n(CC(O)CO)c(=O)n(-c3cccc(C(=O)NC4CC4)c3)c12` (stereo not shown) [Compound 73, N-cyclopropyl-3-(3-(2,3-dihydroxypropyl)-5-((2-fluoro-4-iodophenyl)amino)-6,8-dimethyl-2,4,7-trioxo-3,4,6,7-tetrahydropyrido[4,3-d]pyrimidin-1 (2H)-yl)benzamide], for which the IC80 in the test on ERK phosphorylation (setting [2]) was in the range of 4 to 100 nM.
The same measure, in the same setting: in the case of `CCn1c(=O)c2c(Nc3ccc(I)cc3F)n(C)c(=O)c(C)c2n(-c2cccc(CC(=O)N(C)C)c2)c1=O` [Compound 67, 2-(3-(3-ethyl-5-((2-fluoro-4-iodophenyl)amino)-6,8-dimethyl-2,4,7-trioxo-3,4,6,7-tetrahydropyrido[4,3-d]pyrimidin-1(2H)-yl)phenyl)-N,N-dimethylacetamide] it was 0.1 to 0.9 nM.

Values taken from patent publication US9428499B2, “Heterocyclyl compounds as MEK inhibitors” (LUPIN LIMITED, priority 2012, dated 2016).
